Laboratory results as given in patent US20220177476A1, “Crystal Forms of (S)-4-(8-amino-3-(1-(but-2-ynoyl)-pyrrolidin-2-yl)imidazo[1,5-a]pyrazin-1-yl)-n-(pyridin-2-yl)benzamide” (Acerta Pharma B.V., priority 2015, published 2022).
Where two headings read alike, the source gives them in different places.

Columns and labels:
[1] = Aqueous solubility after equilibrating at 25° C. for three days (HPLC); assay type: physicochemical; conditions: water, equilibrated at 25° C. for three days, HPLC of filtered solution
Experimental: Finally, Form II was tested with respect to solubilities in various water-solvent mixtures and non-aqueous solvents. […] High-performance liquid chromatography (HPLC) was used to determine the concentration of Form II in the filtered solution at approximately 14 μg/mL, which translates into a critical water activity (aw) of about 0.59.

[2] = Plasma exposure after single oral administration in fasted beagle dogs; assay type: in vivo; conditions: nine fasted beagle dogs, single oral administration of 6 mg/kg, oral capsule
Experimental: The plasma exposure of Forms I and II of the free base of Formula (1) were compared in nine fasted beagle dogs after a single oral administration of 6 mg/kg of either form using batches with a similar particle size distribution. The experiment was performed in 5 weekly phases, with the Form II phase last. […] There was a good in vitro in vivo correlation for the dissolution rates of Form 1 and Form II, and the performance of each form of Formula (1) when delivered by oral capsule to dogs.

[3] = Relative stability of solid forms (water activity, suspension equilibration, storage); assay type: physicochemical; conditions: for Stability at Room Temperature: crystalline forms of the free base
Text: Critical water activity is a measure of the relative thermodynamic stability of Form I in comparison to the trihydrate Form II. […] Suspension equilibration experiments in ethanol-water mixtures, each having a different water activity, affirmed this conclusion. Water activities included in the experiments were maintained at: about 0.35 (ethanol-water ratio of 95:5, PP502-P32), about 0.53 (ethanol-water ratio of 9:1, PP502-P33) and about 0.77 (ethanol-water ratio of 7:3, PP502-P34).
Because the DVS results of Form II indicate reversible moisture sorption-desorption behavior (see above), tests were performed to confirm that storage of the dehydrated Form II sample (i.e., Form IV) at about 60% RH would again lead to the trihydrate form (Form II). […]

[4] = Dynamic vapor sorption (DVS); assay type: physicochemical; conditions: for hygroscopicity according to the European Pharmacopoeia (EP) classification: weight increase at 80% RH; for water content at the end of the DVS test: by weight
Experimental: A gravimetric vapor sorption study was run using a standard procedure. Samples were run using a dynamic vapor sorption (DVS) analyzer. Sample sizes were approximately 10 mg. A moisture adsorption-desorption isotherm was performed as outlined below.

[5] = Intrinsic dissolution rate (paddle over stationary disc); assay type: physicochemical
Experimental: The intrinsic dissolution rate (IDR) was measured for Forms I and II of the free base of Formula (1). IDR was measured using a paddle over stationary disc equipped dissolution apparatus with concentration determined using liquid chromatographic analysis against a standard. […] Form I has an IDR of 6.8 mg/cm^2/min in simulated gastric fluid (SGF) (pH 1.2) and an IDR of 0.44 mg/cm^2/min in pH 2.5 HCl/NaCl buffer. Form II has an IDR of 5.4 mg/cm^2/min in SGF and an IDR of 0.35 mg/cm^2/min in pH 2.5 HCl/NaCl buffer.

[6] = for Solubility (mg/mL) after 24 hours equilibration: pure water at 25° C., pH 3.6-4.1
[7] = Bulk and tapped density of salts; assay type: physicochemical; conditions: 10 gram sample
[8] = Aqueous solubility of salts after three hours equilibration without pH adjustment; assay type: physicochemical; conditions: water
Experimental: Characterization of fumarate salt, maleate salt, phosphate salt and L-tartrate salt was conducted using ^1H NMR spectroscopy, TG-FTIR, DSC, dynamic vapor sorption, optical microscopy, high-performance liquid chromatography (HPLC) purity, laser diffraction, approximate bulk and tapped density, and aqueous solubility analytical techniques.

In the case of CC#CC(=O)N1CCC[C@H]1c1nc(-c2ccc(C(=O)Nc3ccccn3)cc2)c2c(N)nccn12 [Form II, (S)-4-(8-amino-3-(1-(but-2-ynoyl)pyrrolidin-2-yl)imidazo[1,5-α]pyrazin-1-yl)-N-(pyridin-2-yl)benzamide], the aqueous solubility [1] is reported as “approximately 14 μg/mL”, the “Cmax (maximum concentration)” value [2] is reported as “lower Cmax (maximum concentration) than Form I in all dogs” and the “area under the plasma drug concentration-time curve (AUC)” value [2] is reported as “lower AUC than Form I in all dogs”. For the same molecule, the “critical water activity (aw)” value ([3]; Form I versus trihydrate Form II, room temperature, from aqueous solubilities) was “about 0.59”, the “relative thermodynamic stability of Form I and Form II” value ([3]; room temperature, depending on water activity) was “above this value Form II is more stable” and the “maximum water content (saturation) at about 95% RH” value ([4]; DVS) was “about 10.4%”. For the same molecule, the “total weight gain observed between 0% RH and 80% RH” value ([4]; DVS) was “about 10%”, the “hygroscopicity according to the European Pharmacopoeia (EP) classification” value (“hygroscopicity according” for short) ([4]; DVS) was “hygroscopic (hygroscopic: ≥2% and <15%)” and the “intrinsic dissolution rate (IDR)” value ([5]; pH 2.5 HCl/NaCl buffer) was 0.35 mg/cm^2/min. For the same molecule, the “intrinsic dissolution rate (IDR)” value ([5]; simulated gastric fluid (SGF) (pH 1.2)) was 5.4 mg/cm^2/min.

For CC#CC(=O)N1CCC[C@H]1c1nc(-c2ccc(C(=O)Nc3ccccn3)cc2)c2c(N)nccn12 [Form III, (S)-4-(8-amino-3-(1-(but-2-ynoyl)pyrrolidin-2-yl)imidazo[1,5-α]pyrazin-1-yl)-N-(pyridin-2-yl)benzamide], the “Stability at Room Temperature” value [3] was “metastable”, the “maximum water content (saturation) at about 95% RH” value ([4]; DVS) was “about 8.5%” and the “total weight gain observed between 0% RH and 80% RH” value ([4]; DVS) was “about 8%”. For the same molecule, the “hygroscopicity according” value ([4]; DVS) was “hygroscopic (hygroscopic: ≥2% and <15%)”.

With CC#CC(=O)N1CCC[C@H]1c1nc(-c2ccc(C(=O)Nc3ccccn3)cc2)c2c(N)nccn12 [Form IV, (S)-4-(8-amino-3-(1-(but-2-ynoyl)pyrrolidin-2-yl)imidazo[1,5-α]pyrazin-1-yl)-N-(pyridin-2-yl)benzamide] the “Stability at Room Temperature” value [3] was “metastable” and the “form after storage at 60% RH for three days (PXRD)” value ([3]; dehydrated Form II sample) was “does revert to Form II”.

In the case of CC#CC(=O)N1CCC[C@H]1c1nc(-c2ccc(C(=O)Nc3ccccn3)cc2)c2c(N)nccn12 [Form V, (S)-4-(8-amino-3-(1-(but-2-ynoyl)pyrrolidin-2-yl)imidazo[1,5-α]pyrazin-1-yl)-N-(pyridin-2-yl)benzamide], the “Stability at Room Temperature” value [3] is reported as “metastable”.

For CC#CC(=O)N1CCC[C@H]1c1nc(-c2ccc(C(=O)Nc3ccccn3)cc2)c2c(N)nccn12 [Form VI, (S)-4-(8-amino-3-(1-(but-2-ynoyl)pyrrolidin-2-yl)imidazo[1,5-α]pyrazin-1-yl)-N-(pyridin-2-yl)benzamide], the “Stability at Room Temperature” value [3] was “metastable”.

In the case of CC#CC(=O)N1CCC[C@H]1c1nc(-c2ccc(C(=O)Nc3ccccn3)cc2)c2c(N)nccn12 [Form VII, (S)-4-(8-amino-3-(1-(but-2-ynoyl)pyrrolidin-2-yl)imidazo[1,5-α]pyrazin-1-yl)-N-(pyridin-2-yl)benzamide], the “Stability at Room Temperature” value [3] is reported as “metastable”.

In the case of CC#CC(=O)N1CCC[C@H]1c1nc(-c2ccc(C(=O)Nc3ccccn3)cc2)c2c(N)nccn12 [Form VIII, (S)-4-(8-amino-3-(1-(but-2-ynoyl)pyrrolidin-2-yl)imidazo[1,5-α]pyrazin-1-yl)-N-(pyridin-2-yl)benzamide], the “Stability at Room Temperature” value [3] is reported as “metastable”.

For CC#CC(=O)N1CCC[C@H]1c1nc(-c2ccc(C(=O)Nc3ccccn3)cc2)c2c(N)nccn12.O=C(O)/C=C/C(=O)O [Fumarate, (S)-4-(8-amino-3-(1-(but-2-ynoyl)pyrrolidin-2-yl)imidazo[1,5-α]pyrazin-1-yl)-N-(pyridin-2-yl)benzamide fumarate], the “Solubility (mg/mL) after 24 hours equilibration” value (“Solubility (mg/mL)” for short) [6] was 2.1 mg/mL, the “Bulk density” value [7] was 0.45 g/mL and the “Tapped density” value [7] was 0.57 g/mL. For the same molecule, the “Behavior in DVS: Δm (20-80% RH)” value [4] was ~0.8% (20-80% RH), the “maximum water content (saturation) at about 95% RH” value ([4]; DVS) was “approximately 6%” and the “water content change between 20% and 80% RH” value ([4]; DVS) was “about 0.8%”. For the same molecule, the “Solubility (3 hours)” value [8] was ~1800 µg/mL.

For CC#CC(=O)N1CCC[C@H]1c1nc(-c2ccc(C(=O)Nc3ccccn3)cc2)c2c(N)nccn12.O=C(O)C(O)C(O)C(=O)O [L-Tartrate, (S)-4-(8-amino-3-(1-(but-2-ynoyl)pyrrolidin-2-yl)imidazo[1,5-α]pyrazin-1-yl)-N-(pyridin-2-yl)benzamide L-tartrate], the “Bulk density” value [7] was 0.29 g/mL, the “Tapped density” value [7] was 0.50 g/mL and the “Behavior in DVS: Δm (20-80% RH)” value [4] was ~0.7% (20-80% RH). The “maximum water content (saturation) at about 95% RH” value ([4]; DVS) was “approximately 5.4%”, the “water content at 50% RH” value ([4]; DVS) was “about 4.8%” and the “water content change between 20% and 80% RH” value ([4]; DVS) was “about 0.7%”.

In the case of CC#CC(=O)N1CCC[C@H]1c1nc(-c2ccc(C(=O)Nc3ccccn3)cc2)c2c(N)nccn12.O=C(O)/C=C\C(=O)O [Maleate, (S)-4-(8-amino-3-(1-(but-2-ynoyl)pyrrolidin-2-yl)imidazo[1,5-α]pyrazin-1-yl)-N-(pyridin-2-yl)benzamide maleate], the “solubility” value ([6]; 0.1 N HCl, Sigma #71763, pH after 24 hours 1.8) is reported as 37000 µg/mL, the “solubility” value ([6]; borate buffer (sample pH9), pH after 24 hours 4.7) is reported as 1200 µg/mL and the “solubility” value ([6]; buffer pH 5, pH after 24 hours 4.8) is reported as 4300 µg/mL. For the same molecule, the “solubility” value ([6]; citrate buffer pH 3, pH after 24 hours 3.2) was 8000 µg/mL, the “solubility” value ([6]; phosphate buffer pH 7, KH2PO4 (sample pH6.8), pH after 24 hours 4.8) was 1200 µg/mL and the “solubility” value ([6]; phosphate buffer pH 7, KH2PO4 (sample pH7.4), pH after 24 hours 5.0) was 800 µg/mL. The “Solubility (mg/mL)” value [6] was 2.3 mg/mL, the “Bulk density” value [7] was 0.35 g/mL and the “Tapped density” value [7] was 0.45 g/mL. The “Behavior in DVS: Δm (20-80% RH)” value [4] was “fumarate, Δm~0.7%”, the “maximum water content (saturation) at about 95% RH” value ([4]; DVS) was “approximately 5.8%” and the “water content change between 20% and 80% RH” value ([4]; DVS) was “about 0.5%”. The “Solubility (3 hours)” value [8] was 2200 µg/mL.

With CC#CC(=O)N1CCC[C@H]1c1nc(-c2ccc(C(=O)Nc3ccccn3)cc2)c2c(N)nccn12.O=P(O)(O)O [Phosphate, (S)-4-(8-amino-3-(1-(but-2-ynoyl)pyrrolidin-2-yl)imidazo[1,5-α]pyrazin-1-yl)-N-(pyridin-2-yl)benzamide phosphate] the “Solubility (mg/mL)” value [6] was 15.0 mg/mL, the “Bulk density” value [7] was 0.33 g/mL and the “Tapped density” value [7] was 0.48 g/mL. The “Behavior in DVS: Δm (20-80% RH)” value [4] was ~0.7% (20-80% RH), the “maximum water content (saturation) at about 95% RH” value ([4]; DVS) was “approximately 6.6%” and the “Solubility (3 hours)” value [8] was 9800 µg/mL.

With CC#CC(=O)N1CCC[C@H]1c1nc(-c2ccc(C(=O)Nc3ccccn3)cc2)c2c(N)nccn12 [amorphous Formula (1), (S)-4-(8-amino-3-(1-(but-2-ynoyl)pyrrolidin-2-yl)imidazo[1,5-α]pyrazin-1-yl)-N-(pyridin-2-yl)benzamide] the “total mass gained up to 95% RH” value ([4]; DVS) was “approximately 13%”, the “total weight gain observed between 0% RH and 80% RH” value ([4]; DVS) was “about 6%” and the “hygroscopicity according” value ([4]; DVS) was “hygroscopic (hygroscopic: ≥2% and <15%)”.

With CC#CC(=O)N1CCC[C@H]1c1nc(-c2ccc(C(=O)Nc3ccccn3)cc2)c2c(N)nccn12.O=C(O)CC(O)(CC(=O)O)C(=O)O [citrate salt, (S)-4-(8-amino-3-(1-(but-2-ynoyl)pyrrolidin-2-yl)imidazo[1,5-α]pyrazin-1-yl)-N-(pyridin-2-yl)benzamide citrate] the “form after suspension equilibration in water” value ([3]; water at 25° C. for 24 hours) was “conversion to Form III of the free base of Formula (1)” and the “water content at the end of the DVS test” value ([4]; DVS) was “about 7.5%”.

For CC#CC(=O)N1CCC[C@H]1c1nc(-c2ccc(C(=O)Nc3ccccn3)cc2)c2c(N)nccn12.O=C(O)c1cc(O)ccc1O [gentisate salt, (S)-4-(8-amino-3-(1-(but-2-ynoyl)pyrrolidin-2-yl)imidazo[1,5-α]pyrazin-1-yl)-N-(pyridin-2-yl)benzamide gentisate], the “water content at the end of the DVS test” value ([4]; DVS) was 5.2%.

In the case of CC#CC(=O)N1CCC[C@H]1c1nc(-c2ccc(C(=O)Nc3ccccn3)cc2)c2c(N)nccn12.O=C(O)C(=O)O [oxalate salt, (S)-4-(8-amino-3-(1-(but-2-ynoyl)pyrrolidin-2-yl)imidazo[1,5-α]pyrazin-1-yl)-N-(pyridin-2-yl)benzamide oxalate], the “maximum water content (saturation) at about 95% RH” value ([4]; DVS) is reported as “about 6.5%” and the “water content at 50% RH” value ([4]; DVS) is reported as “about 5.5%”.
